Structures can show the parent of a compound that is named as a salt.
Each molecule was assayed against T1, human 5-HT4(a) (Homo sapiens, UniProt Q13639) (assay: Evaluation of agonistic activity in CHO-K1 cells expressing human 5-HT4(a) (GeneBlAzer HTR4-CRE-bla CHO-K1, beta-lactamase reporter)). Conditions: CHO-K1 cells stably expressing human 5-HT4(a).
T1 construct: host or cells: GeneBlAzer HTR4-CRE-bla CHO-K1 cells
Assay type: cell-based
Protocol: Test Example 1: Evaluation of Agonistic Activity in CHO-K1 Cells Expressing Human 5-HT4(a)
As CHO-K1 cells stably expressing human 5-HT4(a), we used the GeneBlAzer HTR4-CRE-bla CHO-K1 cells (Invitrogen Corp.). The cells were cultured, under the condition of 37[…] and 5% CO2, in a DMEM supplemented with 10% fetal bovine serum (FBS), 25 mM HEPES (pH7.4), 600 μg/ml hygromycin B, 0.1 mM non-essential amino acids, 100 unit/ml penicillin and 100 μg/ml streptomycin. Subcultures were performed three times per one week, each being at less than 80% confluence. At the previous day before treating test compounds, the cells were collected using 0.5% trypsin/EDTA and then diluted with a DMEM supplemented with 1% FBS, 25 mM HEPES, and 0.1 mM non-essential amino acids into 3.125×10^5 cells/ml. 32 μl of the diluted cells were added into 384-well plate (10^4 cells per well) and then incubated overnight. After the overnight culture, 8 μl of the medium having 1% of DMSO was added into the cell-free control well and the non-stimulating control well, respectively. 8 μl of the respective test compound dilutions (which had been prepared by diluting by 100-times with the medium as mentioned in the above) having 1% of DMSO were added to the respective remaining wells. After being cultured in the incubator for 5 hours, the wells of the 384-plate were treated with the substrate solution (8 μl per well) prepared according to the vendor's instruction (i.e., Invitrogen's instruction), and then incubated in the dark room for additional two hours. Agonistic activities on 5-HT4 receptor were evaluated, on the basis of fluorescence values of the cleavage-products by beta-lactamase. After exciting to 410 nm of wavelength using a fluorescence detector (Genios Pro), we measured the fluorescence values at two emission wavelengths (first wavelength: 465 nm, second wavelength: 535 nm). Data were analyzed on the basis of the ratio of fluorescence intensities of each well at the respective wavelengths. Each EC50 value was calculated by non-linear regression analysis using the “GraphPad Prism” program, based on the activities according to 8-different concentrations of the test compounds.

T1 sequence (Q13639 1-387 isoform Q13639-2): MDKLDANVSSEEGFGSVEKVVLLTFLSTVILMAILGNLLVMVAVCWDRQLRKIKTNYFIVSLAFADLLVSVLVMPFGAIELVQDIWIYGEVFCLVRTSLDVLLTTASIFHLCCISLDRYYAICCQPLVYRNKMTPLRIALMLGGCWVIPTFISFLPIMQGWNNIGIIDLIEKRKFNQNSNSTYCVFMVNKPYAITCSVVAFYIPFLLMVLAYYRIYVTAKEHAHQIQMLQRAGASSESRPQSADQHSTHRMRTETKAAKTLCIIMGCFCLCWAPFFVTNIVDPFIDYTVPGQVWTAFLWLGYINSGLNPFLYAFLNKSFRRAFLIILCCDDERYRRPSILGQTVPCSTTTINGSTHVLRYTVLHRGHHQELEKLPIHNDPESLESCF

Question: How did the EC50 turn out when `CCCc1cc(N2CC[C@H](NCc3ccc(C(F)(F)F)cc3)C2)nc(Nc2cccc(C#N)c2)n1` [Example 108, (S)-3-(4-propyl-6-{3-[4-(trifluoromethyl)benzylamino]pyrrolidin-1-yl}pyrimidin-2-ylamino)benzonitrile] was run?
Answer: 0.21 nM

Question: For `CCCc1cc(N2CC[C@H](NCc3ccc(OC(C)=O)cc3)C2)nc(Nc2cccc(C#N)c2)n1` [Example 109, (S)-4-({1-[2-(3-cyanophenylamino)-6-propylpyrimidin-4-yl]pyrrolidin-3-ylamino}methyl)phenylacetate], which EC50 is on record?
Answer: 0.012 nM

Question: With `CCCc1cc(N2CC[C@H](NCc3ccc(N(C)C)cc3)C2)nc(Nc2cccc(C#N)c2)n1` [Example 110, (S)-3-(4-{3-[4-(dimethylamino)benzylamino]pyrrolidin-1-yl}-6-propylpyrimidin-2-ylamino)benzonitrile] as the molecule, how does the EC50 read?
Answer: 0.018 nM

Question: Which EC50 does the source give for `CCCc1cc(N2CC[C@H](NCc3ccc[nH]3)C2)nc(Nc2cccc(C#N)c2)n1` [Example 111, (S)-3-(4-{3-[(1H-pyrrol-2-yl)methylamino]pyrrolidin-1-yl}-6-propylpyrimidin-2-ylamino)benzonitrile] here?
Answer: 0.008 nM

Question: With `CCCc1cc(N2CC[C@H](NCc3cccs3)C2)nc(Nc2cccc(C#N)c2)n1` [Example 112, (S)-3-{4-propyl-6-[3-(thiophen-2-ylmethylamino)pyrrolidin-1-yl]pyrimidin-2-ylamino}benzonitrile] as the molecule, how does the EC50 read?
Answer: 0.045 nM

Question: For `CCCc1cc(N2CC[C@H](NCc3ccsc3)C2)nc(Nc2cccc(C#N)c2)n1` [Example 113, (S)-3-{4-propyl-6-[3-(thiophen-3-ylmethylamino)pyrrolidin-1-yl]pyrimidin-2-ylamino}benzonitrile], which EC50 is on record?
Answer: 0.016 nM

Question: Which EC50 does the source give for `CCCCN[C@H]1CCN(c2cc(CCC)nc(Nc3cccc(C#N)c3)n2)C1` [Example 116, (S)-3-{4-[3-(butylamino)pyrrolidin-1-yl]-6-propylpyrimidin-2-ylamino}benzonitrile] here?
Answer: 0.0035 nM

Question: `CCCc1cc(N2CC[C@H](NCCCSC)C2)nc(Nc2cccc(C#N)c2)n1` [Example 117, (S)-3-(4-{3-[3-(methylthio)propylamino]pyrrolidin-1-yl}-6-propylpyrimidin-2-ylamino)benzonitrile] was tested. Which EC50 did it give?
Answer: 0.014 nM

Question: With `CCCc1cc(N2CC[C@H](NC)C2)nc(Nc2ccc3cc[nH]c3c2)n1` [Example 121, (S)-N-{4-[3-(methylamino)pyrrolidin-1-yl]-6-propylpyrimidin-2-yl}-1H-indol-6-amine] as the molecule, how does the EC50 read?
Answer: 0.005 nM

Question: How did the EC50 turn out when `CCCc1cc(N2CC[C@H](NC)C2)nc(Nc2ccc(N)c(C(F)(F)F)c2)n1` [Example 123, (S)-N^1-{4-[3-(methylamino)pyrrolidin-1-yl]-6-propylpyrimidin-2-yl}-3-(trifluoromethyl)benzene-1,4-diamine dihydrochloride] was run?
Answer: 0.0019 nM

Question: Which EC50 does the source give for `CCCc1cc(N2CC[C@H](NS(C)(=O)=O)C2)nc(Nc2cccc(C#N)c2)n1` [Example 125, (S)-N-{1-[2-(3-cyanophenylamino)-6-propylpyrimidin-4-yl]pyrrolidin-3-yl}methanesulfonamide] here?
Answer: 0.159 nM

Question: `CCCc1cc(N2CC[C@H](NC(C)CC)C2)nc(Nc2cccc(C#N)c2)n1` (stereo partly drawn) [Example 127, 3-{4-[(3S)-3-(sec-butylamino)pyrrolidin-1-yl]-6-propylpyrimidin-2-ylamino}benzonitrile] was tested. Which EC50 did it give?
Answer: 0.0062 nM

Question: For `CCCc1cc(N2CC[C@H](NC(CC)CC)C2)nc(Nc2cccc(C#N)c2)n1` [Example 128, (S)-3-{4-[3-(pentan-3-ylamino)pyrrolidin-1-yl]-6-propylpyrimidin-2-ylamino}benzonitrile], which EC50 is on record?
Answer: 0.039 nM

Question: `CCCc1cc(N2CC[C@H](NC(CC(C)C)CC(C)C)C2)nc(Nc2cccc(C#N)c2)n1` [Example 129, (S)-3-{4-[3-(2,6-dimethylheptan-4-ylamino)pyrrolidin-1-yl]-6-propylpyrimidin-2-ylamino}benzonitrile] was tested. Which EC50 did it give?
Answer: 0.323 nM

Question: How did the EC50 turn out when `CCCc1cc(N2CC[C@H](NC(C)C(C)(C)O)C2)nc(Nc2cccc(C#N)c2)n1` (stereo partly drawn) [Example 131, (S)-3-{4-[3-(3-hydroxy-3-methylbutan-2-ylamino)pyrrolidin-1-yl]-6-propylpyrimidin-2-ylamino}benzonitrile] was run?
Answer: 0.091 nM

Question: For `CCCCC(C)N[C@H]1CCN(c2cc(CCC)nc(Nc3cccc(C#N)c3)n2)C1` (stereo partly drawn) [Example 133, (S)-3-{4-[3-(n-hexan-2-ylamino)pyrrolidin-1-yl]-6-propylpyrimidin-2-ylamino}benzonitrile], which EC50 is on record?
Answer: 0.039 nM

Question: For `CCCc1cc(N2CC[C@H](NC(C)CCC(C)C)C2)nc(Nc2cccc(C#N)c2)n1` (stereo partly drawn) [Example 134, (S)-3-{4-[3-(5-methylhexan-2-ylamino)pyrrolidin-1-yl]-6-propylpyrimidin-2-ylamino}benzonitrile], which EC50 is on record?
Answer: 0.214 nM

Question: With `CCCc1cc(N2CC[C@H](NC3CCCCC3)C2)nc(Nc2cccc(C#N)c2)n1` [Example 135, (S)-3-{4-[3-(cyclohexylamino)pyrrolidin-1-yl]-6-propylpyrimidin-2-ylamino}benzonitrile] as the molecule, how does the EC50 read?
Answer: 0.011 nM

Question: For `CCCc1cc(N2CC[C@H](NCCNC(=O)OC(C)(C)C)C2)nc(Nc2cccc(C#N)c2)n1` [Example 136, (S)-tert-butyl 2-{1-[2-(3-cyanophenylamino)-6-propylpyrimidin-4-yl]pyrrolidin-3-ylamino}ethylcarbamate], which EC50 is on record?
Answer: 0.045 nM

Question: How did the EC50 turn out when `CCCc1cc(N2CC[C@H](NC3CCN(Cc4ccccc4)CC3)C2)nc(Nc2cccc(C#N)c2)n1` [Example 137, (S)-3-{4-[3-(1-benzylpiperidin-4-ylamino)pyrrolidin-1-yl]-6-propylpyrimidin-2-ylamino}benzonitrile] was run?
Answer: 0.072 nM

Question: Which EC50 does the source give for `CCCc1cc(N2CC[C@H](NC(C)C)C2)nc(Nc2cccc(C#N)c2)n1` [Example 138, (S)-3-{4-[3-(isopropylamino)pyrrolidin-1-yl]-6-propylpyrimidin-2-ylamino}benzonitrile] here?
Answer: 0.012 nM

Question: With `CCCc1cc(N2CC[C@H](NC3CCN(C(=O)c4ccccc4)CC3)C2)nc(Nc2cccc(C#N)c2)n1` [Example 139, (S)-3-{4-[3-(1-benzoylpiperidin-4-ylamino)pyrrolidin-1-yl]-6-propylpyrimidin-2-ylamino}benzonitrile] as the molecule, how does the EC50 read?
Answer: 0.034 nM

Question: For `CCCc1cc(N2CC[C@H](NC3CCN(C(C)=O)CC3)C2)nc(Nc2cccc(C#N)c2)n1` [Example 140, (S)-3-{4-[3-(1-piperidin-4-acetylpiperidin-4-ylamino)pyrrolidin-1-yl]-6-propylpyrimidin-2-ylamino}benzonitrile], which EC50 is on record?
Answer: 0.028 nM

Question: `CCCc1cc(N2CC[C@H](NC3CCCCCCC3)C2)nc(Nc2cccc(C#N)c2)n1` [Example 141, (S)-3-{4-[3-(cyclooctylamino)pyrrolidin-1-yl]-6-propylpyrimidin-2-ylamino}benzonitrile] was tested. Which EC50 did it give?
Answer: 0.085 nM

Question: How did the EC50 turn out when `CCCc1cc(N2CC[C@H](NC3CCC3)C2)nc(Nc2cccc(C#N)c2)n1` [Example 142, (S)-3-{4-[3-(cyclobutylamino)pyrrolidin-1-yl]-6-propylpyrimidin-2-ylamino}benzonitrile] was run?
Answer: 0.01 nM

Question: With `CCCc1cc(N2CC[C@H](NC3CCCC3)C2)nc(Nc2cccc(C#N)c2)n1` [Example 143] as the molecule, how does the EC50 read?
Answer: 0.0066 nM

Question: `CCCc1cc(N2CC[C@H](NC3CN(C(=O)OC(C)(C)C)C3)C2)nc(Nc2cccc(C#N)c2)n1` [Example 144, (S)-tert-butyl 3-{1-[2-(3-cyanophenylamino)-6-propylpyrimidin-4-yl]pyrrolidin-3-ylamino}azetidine-1-carboxylate] was tested. Which EC50 did it give?
Answer: 0.036 nM

Question: `CCCc1cc(N2CC[C@H](NCCOCc3ccccc3)C2)nc(Nc2cccc(C#N)c2)n1` [Example 145, (S)-3-(4-{3-[2-(benzyloxy)ethylamino]pyrrolidin-1-yl}-6-propylpyrimidin-2-ylamino)benzonitrile] was tested. Which EC50 did it give?
Answer: 0.046 nM

Question: With `CCCc1cc(N2CC[C@H](NC(=O)CC)C2)nc(Nc2cccc(C#N)c2)n1` [Example 146, (S)-N-{1-[2-(3-cyanophenylamino)-6-propylpyrimidin-4-yl]pyrrolidin-3-yl}propionamide] as the molecule, how does the EC50 read?
Answer: 0.084 nM

Question: `C/C=C(\C)C(=O)N[C@H]1CCN(c2cc(CCC)nc(Nc3cccc(C#N)c3)n2)C1` [Example 149, (S,E)-N-{1-[2-(3-cyanophenylamino)-6-propylpyrimidin-4-yl]pyrrolidin-3-yl}-2-methylbut-2-enamide] was tested. Which EC50 did it give?
Answer: 0.277 nM

Question: Which EC50 does the source give for `CCCCCC(=O)N[C@H]1CCN(c2cc(CCC)nc(Nc3cccc(C#N)c3)n2)C1` [Example 150, (S)-N-{1-[2-(3-cyanophenylamino)-6-propylpyrimidin-4-yl]pyrrolidin-3-yl}hexanamide] here?
Answer: 0.41 nM

Question: `CCCc1cc(N2CC[C@H](NC(=O)CCc3ccccc3)C2)nc(Nc2cccc(C#N)c2)n1` [Example 151, (S)-N-{1-[2-(3-cyanophenylamino)-6-propylpyrimidin-4-yl]pyrrolidin-3-yl}-3-phenylpropanamide] was tested. Which EC50 did it give?
Answer: 0.334 nM
